Reference: patent US7652017B2, “Remedies and/or preventives for nervous system disorders” (Mitsubishi Tanabe Pharma Corporation, priority 1999, dated 2010)

What was measured:
[1] = system: hippocampus CA1 pyramidal cells; experiment: Action on delayed neuronal cell death in rat (10-minute forebrain ischemia); type: in vivo
Experimental: (§1) Bilateral vertebral arteries of Wister male rats weighing 250 to 300 g were electrically cauterized before 24 hours from ischemic induction to prepare rats showing no neurological symptom such as hemiplegia. Only vertebral arteries of rats were cauterized to prepare rats as sham operation group. Before 30 minutes from ischemic induction, 0.1 mg/kg-b.w. or 1 mg/kg-b.w. of 5-methyl-2-(1-piperazinyl)benzenesulfonic acid monohydrate suspended in distilled water was administered orally to the rat of drug administration group and the equivalent dose of distilled water was administered to the rat of control group.
Ischemia was inducted by 10-minutes' bilateral occlusion of the common carotid arteries under ether anesthesia. […] During ischemia and after recirculation, until recovery of righting reflex, the rats were put on the heating mat to maintain their body temperature. After 72 hours from recirculation, the brain of the rat was fixed by perfusion with a fixative, FAM (formalin:acetic acid:methanol ▭1:1:8). After that, it was embedded by paraffin and a 5 μm thick slice of the forebrain was prepared in an usual manner Haematoxylin stain was conducted and the number of hippocampus CA1 pyramidal cells were counted to obtain the number of the cells per mm (neuronal density). The number of hippocampus CA1 pyramidal cells in sham operation group was 166.0±6.7. After 10 minutes ischemia induction, the number of hippocampus CA1 pyramidal cells in control group (distilled water administration group) was 31.2±13.3 and about 80% of total neuronal cells were led into degeneration and necrosis. The number of hippocampus CA1 pyramidal cells in 0.1 and 1 mg/kg 5-methyl-2-(1-piperazinyl)benzenesulfonic acid monohydrate oral administration group was 74.3±16.0 and 104.1±21.9, respectively. Both of them inhibited neuronal cell death dose-dependently and there is a significant difference between 1 mg/kg administration group and the control group.
(§2) The action on delayed neuronal cell death in rat was observed by the same method as Example 1 except for intravenously administering 0.03 mg/kg-b.w. or 0.3 mg/kg-b.w. of 5-n-propyl-2-(1-piperazinyl)benzenesulfonic acid suspended in distilled water instead of 5-methyl-2-(1-piperazinyl)benzenesulfonic acid monohydrate as a drug.

[2] = Action on disturbance of passive avoidance behavior in rat (5-minute ischemia); type: in vivo
Experimental: as §1, with “cauterized before 48 hours from” for “cauterized before 24 hours from”, “control group. The experiment was conducted by using the apparatus consisting of the bright room (50×50×50 cm) with 100 W lamp and the dark room (20×14×20 cm). The rat electrically cauterized bilateral vertebral arteries was put in the bright room to count the transit time to the dark room. The transit time was identified the reaction latency in the acquisition trial.” for “control group.”
The guillotine door was closed when the rat entered into the dark room and the rat was given electrical shock (2.9 mA, 5 seconds) from the floor grid to finish the acquisition trial.
Ischemia was inducted by 5-minutes' bilateral occlusion of the common carotid arteries under ether anesthesia. […] During ischemia and after recirculation, until recovery of righting reflex, the rats were put on the heating mat to maintain their body temperature. After 48 hours from recirculation, the retention trial was conducted. As the same manner as the acquisition trial, the rat put in the bright room had been observed for at most 300 seconds to count the transit time to the dark room (the reaction latency).
as §2, with “disturbance of passive avoidance” for “delayed neuronal cell death”

[3] = system: ischemic/reperfused myocardium; experiment: Regional cardiac function (% SS) in ischemic/reperfused myocardium in dogs; type: in vivo, dog; conditions: 3 μg/kg i.v. 5 minutes before reperfusion; 30-min LAD occlusion, 1 h reperfusion
Experimental: The chest of mongrel dogs (adults, male and female) was opened under anesthesia with pentobarbital (30 mg/kg, i.v.) and a portion of the left coronary anterior descending (LAD) was dissected. A catheter-tip-pressure transducer (Millar; MPC-500) was inserted from the left carotid artery into the left ventricle to determine the left ventricular pressure and its first differential value (dP/dt). A pair of crystal probes were mounted in the LAD region to determine changes in regional segment length. Diastolic segment length (EDL; threshold point of dP/dt) and systolic segment length (ESL; dP/dt(−) max point) were determined from the waveform of dP/dt, and the regional segment shortening (% SS) in the ischemic/reperfused myocardium was calculated as follows: % SS=(EDL−ESL)/[…]×100
After hemodynamic stability is established following operation, the dissected portion of LAD was occluded for 30 minutes and then reperfused for 1 hour. At the same time, the cardiac function (% SS) in the above-described ischemic/reperfused region was continuously monitored throughout the protocol.
The animals were randomly grouped into two groups, one consisting of animals to be administered with 5-methyl-2-(1-piperazinyl)benzenesulfonic acid monohydrate (drug administration group; N=6) and the other of control group (N=6). […]

[4] = biological target: T1, sarcoplasmic reticulum calcium ion-ATPase (Canis lupus familiaris, UniProt O46674); experiment: Sarcoplasmic reticulum calcium ion-ATPase activity of myocardium fractions; type: biochemical, dog
T1 construct: their hearts were isolated and the myocardium in post-ischemic region and non-ischemic region the left ventricles were collected; from tissue; host or cells: dog left-ventricle myocardium (post-ischemic and non-ischemic regions), sarcoplasmic reticulum fraction
T1 sequence (O46674 whole entry): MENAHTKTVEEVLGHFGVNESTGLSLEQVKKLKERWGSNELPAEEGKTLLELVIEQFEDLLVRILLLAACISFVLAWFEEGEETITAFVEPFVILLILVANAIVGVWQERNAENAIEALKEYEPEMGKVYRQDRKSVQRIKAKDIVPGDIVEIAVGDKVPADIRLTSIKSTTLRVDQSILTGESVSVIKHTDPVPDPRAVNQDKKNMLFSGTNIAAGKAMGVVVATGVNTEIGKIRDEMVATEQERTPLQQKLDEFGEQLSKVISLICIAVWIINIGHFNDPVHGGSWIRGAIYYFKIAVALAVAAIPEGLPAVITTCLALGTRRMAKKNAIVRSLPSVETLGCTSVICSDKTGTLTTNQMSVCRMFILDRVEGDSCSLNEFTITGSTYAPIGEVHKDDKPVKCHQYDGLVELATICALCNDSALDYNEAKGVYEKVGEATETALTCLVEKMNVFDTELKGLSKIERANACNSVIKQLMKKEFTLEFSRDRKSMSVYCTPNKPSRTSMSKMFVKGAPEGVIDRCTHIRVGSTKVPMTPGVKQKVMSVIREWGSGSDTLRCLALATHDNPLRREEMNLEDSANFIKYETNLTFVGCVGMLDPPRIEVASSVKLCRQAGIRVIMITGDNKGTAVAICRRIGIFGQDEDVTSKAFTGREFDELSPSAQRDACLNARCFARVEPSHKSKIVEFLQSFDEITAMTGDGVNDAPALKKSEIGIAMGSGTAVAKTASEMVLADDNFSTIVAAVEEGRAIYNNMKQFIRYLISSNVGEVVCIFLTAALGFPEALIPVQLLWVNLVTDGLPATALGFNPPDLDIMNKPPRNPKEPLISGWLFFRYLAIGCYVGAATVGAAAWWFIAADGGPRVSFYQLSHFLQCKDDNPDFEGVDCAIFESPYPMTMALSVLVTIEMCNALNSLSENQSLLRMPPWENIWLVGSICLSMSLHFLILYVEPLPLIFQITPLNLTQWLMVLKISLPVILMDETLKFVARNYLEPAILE

[5] = system: papillary muscle of the right ventricle; experiment: Inhibition of the cardiotonic action of isoproterenol in isolated papillary muscle; design: species or system guinea-pig; conditions: Cavia porcellus, read-out: Inhibition (%) of developed tension increased by isoproterenol
Experimental: For the evaluation of the extent of inhibiting overaccumulation of intracellular calcium ions, inhibition of the cardiotonic action of isoproterenol by the compounds described in Table 1 and Table 2 as mentioned above was measured.
That is to say, since isoproterenol has been known to cause calcium ions overload by excessive calcium ions influx into cardiac myocytes (Fleckenstein A., Janke J., Doring H., Leder O.; Recent advances in Studies on cardiac structure and metabolism, Myocardial Biology, Vol. 4, pp. 563-580 (1974)), the compounds which inhibit the action of isoproterenol can inhibit intracellular calcium ions overload.
The papillary muscle of the right ventricle isolated from male Hartley guinea-pigs (body weight: 250 to 350 g) was suspended in an organ bath filled with a nutrient solution (Krebs-Henseleit solution). The temperature of the nutrient solution was maintained at 32° C., and the solution was aerated with a gas mixture of 95% oxygen and 5% carbon dioxide. The papillary muscle was applied with a resting tension of about 0.5 g, and stimulated with platinum electrodes by a rectangular pulse of a duration of 1 msec, a frequency of 1 Hz and a voltage higher by 15% than the threshold value. The developed tension of the papillary muscle was measured through a tension transducer and recorded with a polygraph system. After the preparation was stabilized for about 90 minutes, isoproterenol ( 10^−3 to 10^−7 M) was added into the organ bath so that developed tension could be increased by 100% or more, and at the point when the maximum response was obtained, the compounds of the present invention were added into the organ bath, and % inhibition of the developed tension increased by isoproterenol was measured.

Compound: Cc1ccc(N2CCNCC2)c(S(=O)(=O)O)c1.O [5-methyl-2-(1-piperazinyl)benzenesulfonic acid monohydrate]
- number of hippocampus CA1 pyramidal cells (neuronal density) ([1]; 0.1 mg/kg oral 30 min before 10-min ischemia, 72 h after recirculation, control 31.2±13.3, sham 166.0±6.7): 74.3±16.0 per mm
- number of hippocampus CA1 pyramidal cells (neuronal density) ([1]; 1 mg/kg oral 30 min before 10-min ischemia, 72 h after recirculation, P<0.05 vs control 31.2±13.3): 104.1±21.9 per mm
- reaction latency in the retention trial ([2]; 0.1 mg/kg oral, 48 h after 5-min ischemia, control 71.4±29.4, sham 206.1±29.4): 97.7 ± 31.2 s
- reaction latency in the retention trial ([2]; 1 mg/kg oral, 48 h after 5-min ischemia, control 71.4±29.4, sham 206.1±29.4): 139.0 ± 27.5 s
- regional cardiac function (% SS) in post-reperfusion region compared to control group [3]: significantly improved
- calcium ion-ATPase activity of sarcoplasmic reticulum, post-ischemic region ([4]; calcium ion concentration 10 μM, dogs given 3 μg/kg i.v. before reperfusion, control 0.070±0.004, P<0.05): 0.090±0.008 μmol Pi/mg min
- calcium ion-ATPase activity of sarcoplasmic reticulum, non-ischemic region ([4]; calcium ion concentration 10 μM, dogs given 3 μg/kg i.v. before reperfusion, control 0.089±0.009, no significant difference): 0.088±0.006 μmol Pi/mg min

Compound: Cc1ccc(N2CCNCC2)c(S(=O)(=O)O)c1 [Compound 12, 5-methyl-2-(1-piperazinyl)benzenesulfonic acid]
- inhibition at 1000 µM ([5]; drug concentration 10^−3 M): 18.5%

Compound: CCCc1ccc(N2CCNCC2)c(S(=O)(=O)O)c1 [Compound 14, 5-n-propyl-2-(1-piperazinyl)benzenesulfonic acid]
- number of hippocampus CA1 pyramidal cells (neuronal density) ([1]; 0.03 mg/kg, P<0.01, control 71.3±10.3, sham 177.8±5.3): 125.1±5.7 per mm
- number of hippocampus CA1 pyramidal cells (neuronal density) ([1]; 0.3 mg/kg, P<0.05, control 71.3±10.3, sham 177.8±5.3): 131.9±9.9 per mm
- reaction latency in the retention trial ([2]; 0.03 mg/kg intravenous, 5-min ischemia, P<0.001, control 88.2±18.1, sham 243.5±31.6): 253.4 ± 25.6 s
- reaction latency in the retention trial ([2]; 0.3 mg/kg intravenous, 5-min ischemia, P<0.05, control 88.2±18.1, sham 243.5±31.6): 187.2 ± 36.1 s
- reaction latency in the acquisition trial ([2]; every group (0.03 and 0.3 mg/kg intravenous, control, sham), no significant difference): about 20 seconds
- inhibition at 100 µM ([5]; drug concentration 10^−4 M): 19.2%
- inhibition at 10 µM ([5]; drug concentration 10^−5 M): 10.4%

Compound: C/C=C(/C)C(=O)O[C@H]1C(C)=C2[C@H]([C@@H]1OC(=O)CCCCCCC)[C@@](C)(OC(C)=O)C[C@H](OC(=O)CCC)[C@@]1(O)[C@H]2OC(=O)[C@@]1(C)O [Thapsigargin, reference compound]
- inhibition of sarcoplasmic reticulum calcium ion-ATPase activity ([4]; 1 μM added in vitro): completely inhibited
